Data on seven compounds can be found in US6407235B1, “Prodrug acid esters of [2-(4-benzyl-3-hydroxy-piperidin-1-yl)-ethansulfonyl]phenol” (Hoffmann-La Roche Inc., priority 2001, dated 2002).

SMILES strings stand for the structures. In brackets after ≈: the same amount, converted by molar mass. Read-outs that look alike come from different tables or passages of the source.

One data set is described as follows: Stability in solution. Format: physicochemical. The note with it: pH 7.4, 24 hours.
Another data set is described as follows: Solubility. Format: physicochemical. As to conditions: for Solubility at pH 7.4 relative to the parent compound, suggested/assumed from pH 4.0 data: pH 7.4, not measured directly.
A further data set concerns NMDA receptor subtype. As to conditions: known from WO 00/75109; cited from earlier work.
Setting [1] is: pH 4, aqueous buffer, read-out: Solubility (μg/ml at pH 4).
Setting [2] is: pH 7, aqueous buffer, read-out: Solubility (μg/ml at pH 7).

In the case of `NCc1ccc(C(=O)Oc2ccc(S(=O)(=O)CCN3CC[C@H](Cc4ccccc4)[C@H](O)C3)cc2)cc1` [Example 7, 4-Aminomethyl-benzoic Acid (3S,4S)-4-[2-(4-benzyl-3-hydroxy-piperidin-1-yl)-ethanesulfonyl]-phenyl Ester], the “Stability at pH 7.4 over 24 hours” value in “Stability in solution” is reported as “unstable”. For the same compound, in the data set “Solubility” (setting [1]), the solubility was 6710 µg/mL (≈ 13.2 mM). Besides, in “Solubility”, the “Solubility at pH 7.4 relative to the parent compound, suggested/assumed from pH 4.0 data” value is listed as “higher solubility can be assumed”.

Take `O=S(=O)(CCN1CC[C@H](Cc2ccccc2)[C@H](O)C1)c1ccc(O)cc1` [Compound of formula II, (3S,4S)-4-[2-(4-benzyl-3-hydroxy-piperidin-1-yl)-ethanesulfonyl]-phenol, reference compound]: in the data set on NMDA receptor subtype, the “NMDA receptor subtype specific blocker” value is “good NMDA receptor subtype specific blocker”. In addition, the solubility in “Solubility” (aqueous buffer, pH 4.8 (printed in the cell of the pH 4 column), read-out: Solubility (μg/ml) at pH 4.8) is 7750 µg/mL; in the data set “Solubility” (setting [2]), 47 µg/mL. Further, the “Water solubility at physiological pH” value in the data set “Solubility” (physiological pH) is recorded as “limited water solubility”.

For `O=C(Oc1ccc(S(=O)(=O)CCN2CC[C@H](Cc3ccccc3)[C@H](O)C2)cc1)c1cccc(CN2CCOCC2)c1` [Example 6, 3-Morpholin-4-ylmethyl-benzoic Acid (3S,4S)-4-[2-(4-benzyl-3-hydroxy-piperidin-1-yl)-ethanesulfonyl]-phenyl Ester], the figures for the solubility in the data set “Solubility” (setting [1]) and in the data set “Solubility” (setting [2]) were 8500 µg/mL (≈ 14.7 mM) and 89 µg/mL (≈ 0.154 mM), respectively.

Turning to `CNCc1cccc(C(=O)Oc2ccc(S(=O)(=O)CCN3CC[C@H](Cc4ccccc4)[C@H](O)C3)cc2)c1` [Example 9, 3-Methylaminomethyl-benzoic Acid (3S,4S)-4-[2-(4-benzyl-3-hydroxy-piperidin-1-yl)-ethanesulfonyl]-phenyl Ester], the “Stability at pH 7.4 over 24 hours” value in “Stability in solution” is recorded as “unstable”. Moreover, the solubility in “Solubility” (setting [1]) was determined as 86600 µg/mL (≈ 166 mM). Also, the “Solubility at pH 7.4 relative to the parent compound, suggested/assumed from pH 4.0 data” value in the data set “Solubility” is “higher solubility”.

In the case of `CNCc1ccc(C(=O)Oc2ccc(S(=O)(=O)CCN3CC[C@H](Cc4ccccc4)[C@H](O)C3)cc2)cc1` [Example 10, 4-Methylaminomethyl-benzoic Acid (3S,4S)-4-[2-(4-benzyl-3-hydroxy-piperidin-1-yl)-ethanesulfonyl]-phenyl Ester], in the data set “Stability in solution”, the “Stability at pH 7.4 over 24 hours” value was “unstable”. Further, the solubility in “Solubility” (setting [1]) was found to be 26100 µg/mL (≈ 49.9 mM). For the same compound, the “Solubility at pH 7.4 relative to the parent compound, suggested/assumed from pH 4.0 data” value in “Solubility” is recorded as “higher solubility”.

Regarding `O=P(O)(O)Oc1ccc(S(=O)(=O)CCN2CC[C@H](Cc3ccccc3)[C@H](O)C2)cc1` [Example 2, Phosphoric Acid Mono-{(3S,4S)-4-[2-(4-benzyl-3-hydroxy-piperidin-1-yl)-ethanesulfonyl]-phenyl}ester], the solubility in “Solubility” (setting [1]) is 594 µg/mL (≈ 1.3 mM); in the data set “Solubility” (setting [2]), above 37600 µg/mL.

For `O=C(O)CCC(=O)Oc1ccc(S(=O)(=O)CCN2CC[C@H](Cc3ccccc3)[C@H](O)C2)cc1` [Example 1, Succinic Acid Mono-{(3S,4S)-4-[2-(4-benzyl-3-hydroxy-piperidin-1-yl)-ethanesulfonyl]-phenyl}ester], the solubility in “Solubility” (setting [1]) was 1800 µg/mL (≈ 3.78 mM); in the data set “Solubility” (setting [2]), 7690 µg/mL (≈ 16.2 mM).
